Results: patent publication US20080064725A1, “INTRATHECAL ADMINISTRATION OF TRIPTAN COMPOSITIONS TO TREAT NON-MIGRAINE PAIN” (priority 2006, published 2008)

Key:
[1] = system: CD1 male mice; assay: spared nerve injury (SNI) model of neuropathic pain; assay type: in vivo
Procedure: Spared nerve injury (SNI) model of neuropathic pain. A model of partial sciatic nerve injury was used in which the peroneal and sural nerves were selectively ligated and cut, sparing the tibial nerve. […] Animals were injected in a blinded cross-over manner, in which half of the animals received sumatriptan on one day and saline on the other.

[2] = system: CD1 male mice; assay: hot plate test of acute thermal pain; assay type: in vivo
[3] = system: CD1 male mice; assay: radiant heat to the hindpaw (Hargreaves test), baseline thresholds; assay type: in vivo
[4] = system: CD1 male mice; assay: carrageenan-induced thermal and mechanical hypersensitivity
[5] = system: CD1 male mice; assay: formalin test of pain behavior
[6] = system: CD1 male mice; assay: mechanical nociceptive thresholds with calibrated monofilaments, baseline; assay type: in vivo
[7] = system: CD1 male mice; assay: Rotarod test for sedative and sensorimotor effects; assay type: in vivo; details: SC 300, 600 μg/kg or IT 0.06, 0.60 μg; one hour after dosing
Procedure: To screen for sedative and other adverse sensorimotor effects, mice were tested on a Rotarod (Ugo Basile, Comerio, Italy). The time in which mice were able to balance on a rod rotating on its axis at a constant velocity of 15 rpm were measured. The total duration of each trial was 300 sec. On the day prior to the test, animals accommodated to the task with three separate training trials. […] A single trial was used for each dose and route; reported times represent % change from the baseline value for each animal ±SEM.

[8] = system: CD1 male mice; assay: CFA-induced persistent inflammation, mechanical hyperalgesia; assay type: in vivo; details: IT 0.0006, 0.006, 0.01, 0.06 μg; days 3-7 after CFA
Procedure: Intrathecal sumatriptan reduces the hyperalgesic effects of persistent inflammation induced by Complete Freunds Agent (CFA). CFA injection produces a prolonged period of mechanical hyperalgesia that persists and remains stable during days 3-7 after injection into the plantar surface of the hindpaw. CD1 male mice were used. Mechanical thresholds were tested on the first day, prior to a single injection of CFA to a hindpaw (baseline). By day 3 after CFA injection animals were hyperalgesic (post CFA 3d). Animals were tested for a sumatriptan response on 4 successive days (days 3-6) after CFA. A mechanical threshold was determined on each successive day prior to the administration of intrathecal sumatriptan. Doses of sumatriptan tested are: 0.0006 μg, 0.006 μg, 0.01 μg, and 0.06 μg, all in the volume of 5 μl. Mechanical thresholds were then determined at 30 and 60 min after the injection. The average withdrawal thresholds for the CFA-treated hindpaw at […] after the administration of each dose of sumatriptan was measured. The antihyperalgesic effect of each of these doses, expressed as a percent of the pre-injection threshold for that day, were compared to the original baseline.
Persistent inflammation after CFA. […] Hindpaw swelling pre- and 72 hours postinjection was measured to confirm the effects of the injection.

[9] = sumatriptan SC 300, 600 μg/kg or IT 0.06, 0.60 μg, unstimulated baseline state
[10] = intrathecal, 24 hours after carrageenan to hindpaw, dose-dependent

In the case of `CN1CC[C@]23c4c5ccc(O)c4O[C@H]2[C@@H](O)C=C[C@H]3[C@H]1C5.O=S(=O)(O)O` [morphine, morphine sulfate], the “analgesia in SNI model” value ([1]; IT morphine) is reported as “profound analgesia, to cutoff latencies”, the “hot-plate test analgesic response” value ([2]; positive control, 10 nmol IT) is reported as “robust analgesic response” and the “Hargreaves test analgesic response” value ([3]; positive control, 10 nmol IT) is reported as “robust analgesic response”. For the same compound, the “analgesia in carrageenan model” value ([4]; IT morphine) was “profound analgesia, with all animals reaching the cutoff latency”, the “formalin test, first phase pain behavior” value ([5]; positive control, 10 nmol IT) was “eliminated” and the “formalin test, second phase pain behavior” value ([5]; positive control, 10 nmol IT) was “eliminated”. The “mechanical pain test analgesic response” value ([6]; positive control, 10 nmol IT) was “robust analgesic response”.

`CNS(=O)(=O)Cc1ccc2[nH]cc(CCN(C)C)c2c1` [sumatriptan] was tested, and the “mechanical hypersensitivity produced by nerve injury (SNI)” value ([1]; SNI 7 d, regardless of dose or route of delivery, IT 0.6 μg, 30-120 min after drug) was “completely without effect”, the “nociceptive thresholds of unaffected contralateral leg” value ([1]; SNI model, IT sumatriptan) was “unaffected” and the “sedation or sensorimotor incoordination on the Rotarod test” value [7] was “no evidence of confounding deficits due to sedation or sensorimotor incoordination”. The “hot-plate test threshold (latency)” value [2, 9] was “no significant changes in threshold”, the “Hargreaves test (radiant heat to hindpaw) threshold” value [3, 9] was “no significant changes in threshold” and the “time after injection at which antinociceptive effect was significant” value ([4]; IT sumatriptan, carrageenan model) was 30 min. For the same compound, the “behavior after carrageenan, SC drug compared with control IT saline” value ([4]; SC sumatriptan) was “did not differ”, the “pain thresholds of unstimulated contralateral hindlimb” value ([4]; carrageenan model, sumatriptan) was “did not affect pain thresholds” and the “thermal latencies versus baseline (analgesic effect beyond reversal of hyperalgesia)” value ([4]; intrathecal sumatriptan, carrageenan-treated hindpaw) was “latencies exceeded those at baseline”. For the same compound, the “mechanical hypersensitivity after carrageenan” value [4, 10] was “completely reversed”, the “thermal hypersensitivity after carrageenan” value [4, 10] was “completely reversed” and the “formalin test, second phase (11-60 min) pain behavior” value ([5]; IT 0.006, 0.06, 0.60 μg one hour before formalin, dose-dependent) was “profound reduction of pain behavior”. The “formalin test, second phase pain behavior” value ([5]; systemic (SC) 300, 600 μg/kg one hour before formalin) was “modestly reduced second phase behaviors, but only at the highest dose tested”, the “mechanical hypersensitivity after intraplantar CFA” value [8] was “reduced mechanical hypersensitivity” and the “mechanical pain threshold, calibrated monofilaments” value [6, 9] was “no significant changes in threshold”.
